For orientation: EC50 means the concentration giving half of the maximal effect.

Each structure is given as a SMILES string. Read-outs that look alike come from different tables or passages of the source.

This assay deals with KARN cells (Jurkat 2C4). The assay can be described thus: cells. The format is cell-based. Put shortly: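 Jurkat 2C4 (KARN) cells dosed with test compounds up to 40 μM final, 0.4% DMSO, overnight at 5% CO2; luciferase read by Steady-Glo luminescence after 10 min at room temperature. DMSO set as 0% and 2 μM SAHA as 100% induction; 4-parameter fit of percent activation.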
The mark [1] stands for this setting: Homo sapiens, Jurkat, read-out: Karn EC50 (nM) 0.1% NHS, 0.1% normal human serum.
Setting [2] is: Homo sapiens, Jurkat, read-out: Karn EC50 (nM) 5% NHS, 5% normal human serum.

Turning to `CCC(=O)CCCCC[C@H](NC(=O)[C@H]1CC12CCN(C)CC2)c1nc(F)c(-c2cc3ccccc3nc2OC)[nH]1` [Compound 75], the EC50 stood at 275 nM under setting [1] and 801 nM under setting [2].
The matching figures for `CCC(=O)CCCCC[C@H](NC(=O)[C@H]1CC12CCN(C)CC2)c1[nH]c(-c2ccc(F)cc2)nc1C#N` [Compound 76]: 233 nM and 409 nM.
For `CCC(=O)CCCCC[C@H](NC(=O)[C@H]1CC12CCN(C)CC2)c1ncc(-c2cc3ccccc3nc2OC)o1` [Compound 77], the EC50 came to 194 nM (read-out: Karn EC50 (nM) 0.1% NHS, 0.1% normal human serum) and 311 nM (read-out: Karn EC50 (nM) 5% NHS, 5% normal human serum).
As for `CCC(=O)CCCCC[C@H](NC(=O)[C@H]1CC12CCN(CC)CC2)c1ncc(-c2ccc3nc(C4CC4)ccc3c2)[nH]1` [Compound 101], the EC50 is, setting by setting: under setting [1], 41 nM; under setting [2], 36 nM.
The corresponding values for `CCC(=O)CCCCC[C@H](NC(=O)[C@H]1CC12CCN(CC1CC1)CC2)c1ncc(-c2ccc3nc(C4CC4)ccc3c2)[nH]1` [Compound 104] are 33 nM and 28 nM.
The matching figures for `CCC(=O)CCCCC[C@H](NC(=O)C1=NOC2(CCN(C)CC2)C1)c1ncc(-c2cc3ccccc3nc2OC)[nH]1` [Compound 105]: 126 nM and 942 nM.
The corresponding values for `CCC(=O)CCCCC[C@H](NC(=O)C1=NOC2(CCN(C(C)C)CC2)C1)c1ncc(-c2cc3ccccc3nc2OC)[nH]1` [Compound 106, N-{(1S)-1-[5-(2-methoxyquinolin-3-yl)-1H-imidazol-2-yl]-7-oxononyl}-8-(1-methylethyl)-1-oxa-2,8-diazaspiro[4.5]dec-2-ene-3-carboxamide] are 143 nM and 1070 nM.
As for `CCC(=O)CCCCC[C@H](NC(=O)[C@H]1CC12CCN(C)CC2)c1ncc(-c2ccc3c(ccc(=O)n3C)c2)o1` [Compound 109], the EC50 runs as follows: under setting [1], 706 nM; under setting [2], 579 nM.
`CCC(=O)CCCCC[C@H](NC(=O)[C@H]1CC12CCN(C)CC2)c1ncc(-c2ccc3cnc(OC)cc3c2)[nH]1` [Compound 113]: the EC50 under setting [1] is 58 nM and the EC50 under setting [2] is 107 nM.
The matching figures for `CCC(=O)CCCCC[C@H](NC(=O)[C@H]1CC12CCN(CC)CC2)c1ncc(-c2ccc3nc(C4CC4)ccc3c2)o1` [Compound 114]: 207 nM and 220 nM.
The matching figures for `CCC(=O)CCCCC[C@H](NC(=O)[C@H]1CC12CCN(CC1CC1)CC2)c1ncc(-c2ccc3nc(C4CC4)ccc3c2)o1` [Compound 115]: 239 nM and 209 nM.
The matching figures for `CCC(=O)CCCCC[C@H](NC(=O)[C@H]1CC12CCN(C(C)C)CC2)c1ncc(-c2ccc3nc(C4CC4)ccc3c2)o1` [Compound 116]: 630 nM and 617 nM.
`CCC(=O)CCCCC[C@H](NC(=O)[C@H]1CC12CCN(C)CC2)c1ncc(-c2ccc3nc(C4CC4)ccc3c2)o1` [Compound 121]: the EC50 by setting is: under setting [1], 232 nM; under setting [2], 242 nM.
The matching figures for `CCC(=O)CCCCC[C@H](NC(=O)[C@H]1CC[C@]2(CC1)OC(=O)c1ncccc12)c1ncc(-c2ccc3nc(C4CC4)ccc3c2)o1` [Compound 122]: 1130 nM and 2840 nM.
The corresponding values for `CCC(=O)CCCCC[C@H](NC(=O)[C@H]1CC[C@]2(CC1)OC(=O)c1cccnc12)c1ncc(-c2ccc3nc(C4CC4)ccc3c2)o1` [Compound 123] are 868 nM and 3900 nM.
Consider `CCC(=O)CCCCC[C@H](NC(=O)[C@H]1CC12CCN(C)CC2)c1ncc(-c2cc3ccccc3nc2OC)o1` [Compound 125], for which the half-maximal effective concentration (EC50) came to 154 nM under setting [1] and 256 nM under setting [2].
The corresponding values for `CCC(=O)CCCCC[C@H](NC(=O)[C@H]1CC12CCN(CC)CC2)c1ncc(-c2ccc3c(=O)n(C(C)C)ccc3c2)[nH]1` [Compound 126] are 53 nM and 33 nM.
The corresponding values for `CCC(=O)CCCCC[C@H](NC(=O)[C@H]1CC12CCN(CC)CC2)c1ncc(-c2ccc(-c3cnc(C4CC4)cn3)cc2)o1` [Compound 129, (1S)—N-[(1S)-1-{5-[4-(5-cyclopropylpyrazin-2-yl)phenyl]-1,3-oxazol-2-yl}-7-oxononyl]-6-ethyl-6-azaspiro[2.5]octane-1-carboxamide] are 828 nM and 1240 nM.
The corresponding values for `CC(O)C(=O)CCCCC[C@H](NC(=O)[C@H]1CC12CCN(C)CC2)c1nc(-c2ccc(F)cc2)c[nH]1` (stereo partly drawn) [Compound 134, (1S)—N-{(1S)-1-[4-(4-fluorophenyl)-1H-imidazol-2-yl]-8-hydroxy-7-oxononyl}-6-methyl-6-azaspiro[2.5]octane-1-carboxamide] are 2410 nM and 2190 nM.
As for `CCC(=O)CCCCC[C@H](NC(=O)C1=NOC2(CCN(C)CC2)C1)c1ncc(-c2ccc3nc(C4CC4)ccc3c2)o1` [Compound 135], the EC50 is 1120 nM under setting [1] and 1380 nM under setting [2].
For `CCC(=O)CCCCC[C@H](NC(=O)C1=NOC2(CCN(C(C)C)CC2)C1)c1ncc(-c2ccc3nc(C4CC4)ccc3c2)o1` [Compound 136], the EC50 under setting [1] came out at 2500 nM.
Consider `CCC(=O)CCCCC[C@H](NC(=O)[C@H]1CC12CCN(C)CC2)c1ncc(-c2ccc3c(=O)n(C)ccc3c2)o1` [Compound 137], for which the EC50 by setting is: under setting [1], 434 nM; under setting [2], 443 nM.
The corresponding values for `CCC(=O)CCCCC[C@H](NC(=O)[C@H]1CC12CCN(C)CC2)c1ncc(-c2ccc3oc(=O)ccc3c2)[nH]1` [Compound 138] are 210 nM and 223 nM.
The corresponding values for `CCC(=O)CCCCC[C@H](NC(=O)[C@H]1CC12CCN(C)CC2)c1ncc(-c2ccc(C3CC3)nc2)[nH]1` [Compound 139] are 532 nM and 552 nM.
The corresponding values for `CCC(=O)CCCCC[C@H](NC(=O)[C@H]1CC12CCN(C)CC2)c1ncc(-c2ccc3ncc(Cl)cc3c2)[nH]1` [Compound 140] are 113 nM and 155 nM.
In the case of `CCC(=O)CCCCC[C@H](NC(=O)[C@H]1CC[C@]2(CC1)OC(=O)c1ncccc12)c1ncc(-c2cc3ccccc3nc2OC)[nH]1` [Compound 141], the EC50 is 146 nM under setting [1] and 1450 nM under setting [2].
The corresponding values for `CCC(=O)CCCCC[C@H](NC(=O)[C@H]1CC12CCN(C)CC2)c1ncc(-c2ccc(-c3ccc(C4CC4)nc3)cc2)o1` [Compound 143] are 1240 nM and 1330 nM.
The corresponding values for `CCC(=O)CCCCC[C@H](NC(=O)C1CC2(CCN(C)CC2)C1)c1ncc(-c2ccc3nn(C)cc3c2)[nH]1` [Compound 145] are 641 nM and 746 nM.
The corresponding values for `CCC(=O)CCCCC[C@H](NC(=O)[C@H]1CC12CCN(C)CC2)c1ncc(-c2ccc3nc(C4CC4)sc3c2)[nH]1` [Compound 146] are 122 nM and 112 nM.
For the molecule `CCC(=O)CCCCC[C@H](NC(=O)C1CC2(C1)CN(C)C2)c1ncc(-c2ccc3nn(C)cc3c2)[nH]1` [Compound 147], the EC50 by setting is: under setting [1], 3580 nM; under setting [2], 2850 nM.
Take `CCC(=O)CCCCC[C@H](NC(=O)[C@H]1CC12CCN(C)CC2)c1ncc(-c2ccc3nc(CC)sc3c2)[nH]1` [Compound 149]: the EC50 came to 92 nM under setting [1] and 73 nM under setting [2].
The matching figures for `CCC(=O)CCCCC[C@H](NC(=O)[C@H]1CC12CCN(CC)CC2)c1ncc(-c2ccc3c(=O)n(C4CC4)ccc3c2)[nH]1` [Compound 150]: 114 nM and 135 nM.

The values are drawn from US12590099B2, “Inhibitors of histone deacetylase useful for the treatment or prevention of HIV infection” (Merck Sharp & Dohme LLC, priority 2018, dated 2026).
